We go through nine compounds from US20020035100A1, “Alkyl ether modified polycyclic compounds having a terminal phenol and uses for protection of cells” (priority 2000, published 2002).

As a reminder, the melting point is the temperature of the solid-liquid transition.

One data set deals with T1, ERα (Homo sapiens, UniProt P03372).
T1 sequence (P03372 1-595): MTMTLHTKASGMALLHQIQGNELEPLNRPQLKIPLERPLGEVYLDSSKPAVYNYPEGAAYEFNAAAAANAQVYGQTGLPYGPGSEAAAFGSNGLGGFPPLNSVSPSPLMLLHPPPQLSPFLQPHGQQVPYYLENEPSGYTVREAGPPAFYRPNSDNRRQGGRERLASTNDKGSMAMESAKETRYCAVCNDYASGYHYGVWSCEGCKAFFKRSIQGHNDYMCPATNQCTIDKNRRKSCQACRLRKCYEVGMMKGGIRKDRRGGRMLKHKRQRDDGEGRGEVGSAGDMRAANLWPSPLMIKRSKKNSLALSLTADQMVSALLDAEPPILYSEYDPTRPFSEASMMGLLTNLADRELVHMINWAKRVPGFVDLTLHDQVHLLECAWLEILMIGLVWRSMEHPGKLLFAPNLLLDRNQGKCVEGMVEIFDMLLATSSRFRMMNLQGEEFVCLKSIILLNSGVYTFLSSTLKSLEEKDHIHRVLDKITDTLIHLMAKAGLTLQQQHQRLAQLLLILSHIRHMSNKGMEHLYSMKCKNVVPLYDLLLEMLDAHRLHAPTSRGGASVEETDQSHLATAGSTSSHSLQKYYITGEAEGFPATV
The data set is described as follows: Estrogen receptor binding, displacement of radiolabeled 17β-estradiol. Also noted: dose or concentration left out as unconfirmed. As to conditions: human cloned ERα, 17β-estradiol assigned 1; <0.01 = no evidence of binding.

In another data set the test system is HT-22 cells. In words: Cytoprotection of HT-22 cells against glutamate exposure (calcein AM cell viability). The format is cell-based, Mouse. Particulars: for neuroprotection: at 10 μM and 1 μM; for cytoprotection (result in words): tested at 0.01-10 μM; for activity compared with 4c and 4e: at 10 μM. How it is done:
Mouse clonal hippocampal HT-22 cells were cultured in DMEM media supplemented with 10% fetal bovine serum under standard cell culture conditions. All wells in the 96 well culture plate contained approximately 5,000 HT-22 cells as determined by a Neubauer hemacytometer and the cells were incubated for 24 hrs before the compounds were added. The estradiol derivatives were purified recrystallization or column chromatography and were free from (1) as determined by HPLC. All agents were dissolved in absolute ethanol and diluted, with the culture media, to a final concentration of 0.01 μM; 0.1 μM; 1.0 μM; and 10 μM in their respective wells. The cells were further incubated for 24 hrs before sodium glutamate in a solution of phosphate buffer was added. Cell viability was quantified 2 hrs later by the calcein AM assay (Green, P. S., E. J.Perez, T. Calloway and J. W. Simpkins: (2000), Journal of Neurocytology, Vol. 29, pp. 419-423) in a phosphate buffer solution.
ANOVA was used to determine the significance of differences among groups. Comparison between groups were done using the Tukey test. Ap<0.05 was considered significant.

Another data set deals with ERβ (Homo sapiens, UniProt Q92731). The data set is described as follows: Estrogen receptor binding, displacement of radiolabeled 17β-estradiol. Also on record: dose or concentration left out as unconfirmed. Particulars: human cloned ERβ, 17β-estradiol assigned 1; <0.01 = no evidence of binding.

“Also recorded” adds a separate entry of the source.

Sequence of ERβ (Q92731 whole entry): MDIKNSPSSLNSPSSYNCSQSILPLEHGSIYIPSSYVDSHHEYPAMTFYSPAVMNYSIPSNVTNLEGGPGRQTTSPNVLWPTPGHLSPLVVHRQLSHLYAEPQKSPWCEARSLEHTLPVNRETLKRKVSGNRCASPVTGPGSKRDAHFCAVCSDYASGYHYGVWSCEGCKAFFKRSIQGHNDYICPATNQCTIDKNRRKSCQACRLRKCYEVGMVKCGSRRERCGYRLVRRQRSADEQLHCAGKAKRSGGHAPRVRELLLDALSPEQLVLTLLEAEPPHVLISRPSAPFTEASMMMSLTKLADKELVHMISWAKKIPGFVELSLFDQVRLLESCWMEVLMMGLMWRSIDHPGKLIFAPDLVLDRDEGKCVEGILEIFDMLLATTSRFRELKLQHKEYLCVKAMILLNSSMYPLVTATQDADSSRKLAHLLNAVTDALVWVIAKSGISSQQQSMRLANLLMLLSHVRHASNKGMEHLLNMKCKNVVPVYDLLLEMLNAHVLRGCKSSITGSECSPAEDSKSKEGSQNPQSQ

With `CCO[C@H]1CC[C@H]2[C@@H]3CCc4cc(O)ccc4[C@H]3CC[C@]12C` [Compound 4b, 17β-Ethoxyestra-1,3,5(10)-trien-3-ol], at ERα, the “ERα BINDING (Relative to E2)” value is recorded as below 0.01.

For `CCCCO[C@H]1CC[C@H]2[C@@H]3CCc4cc(O)ccc4[C@H]3CC[C@]12C` [Compound 4d, 17β-Butoxyestra-1,3,5(10)-trien-3-ol], the melting point lay within 77 to 81 °C. Regarding `CCCCCCCCO[C@H]1CC[C@H]2[C@@H]3CCc4cc(O)ccc4[C@H]3CC[C@]12C` [Compound 4f, 17β-Octyloxyestra-1,3,5(10)-trien-3-ol], on ERα, the “ERα BINDING (Relative to E2)” value is below 0.01. In addition, the neuroprotection result in the data set on HT-22 cells was “neuroprotective to a similar extent”. For the same compound, the “ERβ BINDING (Relative to E2)” value on ERβ was below 0.01. `CCCCCCCCOc1ccc2c(c1)CC[C@@H]1[C@@H]2CC[C@]2(C)[C@@H](O)CC[C@@H]12` [Compound 5c, 3-Octyloxyestra-1,3,5(10)-trien-17β-ol] came in with a melting point of 64 to 66 °C. The “cytoprotection (result in words)” value in the data set on HT-22 cells is “ineffective”. With `C[C@]12CC[C@@H]3c4ccc(O)cc4CC[C@H]3[C@@H]1CC[C@@H]2O` [Compound 1, 17β-estradiol, reference compound], in the data set on HT-22 cells, the “activity compared with 4c and 4e” value is “less active then 4c and 4e”; the “cytoprotection (result in words)” value was “effective only at 10 μM”. For the compound `CCCCOc1ccc2c(c1)CC[C@@H]1[C@@H]2CC[C@]2(C)[C@@H](O)CC[C@@H]12` [Compound 5b, 3-Butoxyestra-1,3,5(10)-trien-17β-ol], the melting point lay within 86 to 88 °C. Besides, the “cytoprotection (result in words)” value in the data set with HT-22 cells is reported as “ineffective”.

With `CCCO[C@H]1CC[C@H]2[C@@H]3CCc4cc(O)ccc4[C@H]3CC[C@]12C` [Compound 4c, 17β-Propoxyestra-1,3,5(10)-trien-3-ol], the “ERα BINDING (Relative to E2)” value on ERα was below 0.01.

Turning to `CO[C@H]1CC[C@H]2[C@@H]3CCc4cc(O)ccc4[C@H]3CC[C@]12C` [Compound 4a, 17β-Methoxyestra-1,3,5(10)-trien-3-ol], in the data set on HT-22 cells, the “activity compared with 4c and 4e” value was “less active then 4c and 4e”; the “cytoprotection (result in words)” value is “inactive; also recorded: ineffective even at 10 μM”. Also, in the data set with HT-22 cells (listed as 17β-methylestradiol), the “cytoprotection (result in words)” value is recorded as “effective only at 10 μM”. Take `CCCCCCO[C@H]1CC[C@H]2[C@@H]3CCc4cc(O)ccc4[C@H]3CC[C@]12C` [Compound 4e, 17β-Hexyloxyestra-1,3,5(10)-trien-3-ol]: in the data set on HT-22 cells, the neuroprotection result is “neuroprotective to a similar extent” and the “cytoprotection (result in words)” value was “active”.
